Assay in all cases: 72 h toxicity of erlotinib, cell viability / IC50 analysis
Holding throughout (assay type): cell-based

The subject of one experiment is HCC827. Conditions: HCC827 carrying E746-A750 deletion. The procedure:
(§1) FIG. 42A,B. FIG. 42A and 42B show 72 h toxicity of erlotinib in various NSCLC cells lines: (A) Cell viability plot and (B) IC50 analysis. Results were averaged from 3 independent experiments.
(§2) The IC50 of erlotinib was investigated in multiple cell lines based on their AXL and FN14 expressions and EGFR/KRAS mutant status (FIG. 42). […] The independent and combined effects of AXL and FN14 siRNAs were also examined. siRNA and siRNA based constructs for treatment and studied variation in IC50 of erlotinib in multiples drug resistant cell lines were used.

A further experiment deals with H1975. The note with it: Homo sapiens, NCI-H1975; T790M mutant H1975, 72 h. The procedure:
as §1, §2

Another experiment has as its system A549. How it is done:
as §1
(§3) (A, C, E) Represent the cell viability plot and (B, D, F) represent the associated IC50 analysis.
as §2
Rho, et al., Cancer Res 2014; 74: 253-262. […] Srikar, et al., Sci Rep 2016; 6: 30245.

A further experiment concerns H820 cells. The note with it: Homo sapiens, NCI-H820, H820 (del E746-E749 and T790M). The procedure: as §1, §3, §2

Where only a bound is given, the exact number is not on record here.

Regarding `C#Cc1cccc(Nc2ncnc3cc(OCCOC)c(OCCOC)cc23)c1` [erlotinib], in the experiment on HCC827, the sensitivity to erlotinib entry was “highly sensitive”. For the same compound, the IC50 in the experiment with H1975 is greater than 10 µM; with A549 (Homo sapiens, A549, 72 h, read-out: IC50 of erlotinib), greater than 10 µM; with H820 cells it was greater than 10 µM. Moreover, the “resensitization towards the drug” value with A549 (A549, downregulating all three pathways (AXL, FN14, KRAS)) is listed as “total resensitization”.

As usually defined, the IC50 is the midpoint of a concentration-inhibition curve.

Source of the values: patent US11576873B2, “Compositions for the treatment of drug-resistant tumors and methods of use thereof” (THE CURATORS OF THE UNIVERSITY OF MISSOURI, priority 2017, dated 2023).
